Laboratory results taken from US20240287033A1, “DEGRADERS OF TISSUE TRANSGLUTAMINASE 2 (TG2)” (Northwestern University, priority 2023, published 2024).
pKd: −log10 of the molar value. “Also recorded” adds a separate entry of the source. Read-outs that look alike come from different tables or passages of the source.

What was measured:
full-length TG2 [1] = molecular target: T1, full-length TG2 (Homo sapiens, UniProt P21980); conditions: literature value (ref. 41); read-out: KD of MT4 to TG2, previously reported result; cited from earlier work
T1 sequence (P21980 1-687): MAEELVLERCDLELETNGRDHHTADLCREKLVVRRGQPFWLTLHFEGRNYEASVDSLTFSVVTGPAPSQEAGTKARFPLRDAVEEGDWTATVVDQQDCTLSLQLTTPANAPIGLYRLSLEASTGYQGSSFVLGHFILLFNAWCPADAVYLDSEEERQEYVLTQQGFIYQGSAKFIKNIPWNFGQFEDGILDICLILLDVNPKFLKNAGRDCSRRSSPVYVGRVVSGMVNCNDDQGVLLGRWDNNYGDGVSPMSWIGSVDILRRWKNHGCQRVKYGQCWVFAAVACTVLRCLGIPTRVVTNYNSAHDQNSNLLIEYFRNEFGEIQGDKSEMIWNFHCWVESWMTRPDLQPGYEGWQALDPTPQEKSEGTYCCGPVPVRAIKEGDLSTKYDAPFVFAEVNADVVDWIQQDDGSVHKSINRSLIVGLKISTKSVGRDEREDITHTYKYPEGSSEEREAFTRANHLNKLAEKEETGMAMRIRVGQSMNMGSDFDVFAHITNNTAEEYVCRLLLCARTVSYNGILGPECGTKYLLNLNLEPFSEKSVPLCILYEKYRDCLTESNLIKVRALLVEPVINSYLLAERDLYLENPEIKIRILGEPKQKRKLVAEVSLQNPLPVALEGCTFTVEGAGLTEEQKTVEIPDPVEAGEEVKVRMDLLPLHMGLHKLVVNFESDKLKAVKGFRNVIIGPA

Solubility observations = assay type: physicochemical
full-length TG2 [2] = molecular target: T1, full-length TG2; assay: Isothermal titration calorimetry (ITC) binding to TG2; conditions: for pKd: titration into TG2 at 30° C., PBS with 1% DMSO, read-out: equilibrium dissociation constant KD (ITC); for decrease in affinity relative to the parental compound MT4: ITC KD ratio versus MT4
Method: Sample Preparation. Protein dilutions in PBS with 1% DMSO were prepared from stock solutions of […] in PBS. The protein dilutions were initially equilibrated on ice for 5 min, then for 20 min at 30° C. The solutions were filtered using a […] Millipore centrifugal device just prior to insertion in the ITC cell. The solubility of the protein solutions was confirmed independently by DLS (data not shown), and the concentration of each solution (after filtration) was measured with a NanoDrop 2000 Instrument.
All compound dilutions were made in PBS, and the final DMSO concentration in each solution was carefully adjusted to 1%.
ITC Experiments. All ITC experiments were performed on an Affinity Low Volume instrument (Waters/TA Instruments) equipped with a fixed 198 μL gold cell. In each experiment, 320 μL of protein solution was loaded into the ITC cell, and 200 μL of the corresponding compound was in the syringe. The data were acquired using ITCRun data acquisition software. The incremental ITC experiments consisted of multiple 2 μL injections at 50-350-second intervals with a stirring speed of 100 revolutions per minute (rpm). The Auto Equilibrate function allowed for the equilibration of the baseline to a peak-to-peak standard deviation of less than 12 nW. For each compound, separate control experiments were performed to evaluate the heat of dilution. The control experiments were set with identical parameters but performed with reaction buffer instead of protein in the ITC cell and consisted of fewer (6-10) injections.
Data Analysis. ITC data were analyzed with Nano Analyze Software (Waters/TA Instruments) using the “independent sites” model after correction for heats of dilution.

OVCAR5 cells [3] = assay: Cell viability assay (CCK-8), OVCAR5; assay type: cell-based; conditions: 0.1-30 μM, 5 days
Method: (§1) The numbers of viable cells were quantified by using the CCK-8 assay (ApexBio) following the manufacturer's directions. Absorbance was measured by a spectrophotometer at 495 nm and used estimate the viability of the cells.

SKOV3 cells [4] = assay: Wound-healing (scratch) assay, SKOV3; assay type: cell-based
Method: (§2) For the scratch assay, confluent 6-well plates were scratched with a pipette tip, washed and treated with compounds or vehicle. The plate was photographed at set time points and the area of wound closure was quantified with ImageJ. Cell migration was assessed by using Transwell inserts (8 μm pore size, Merck-Millipore, Watford, UK). Briefly, 15,000 cells were seeded in the upper chambers of trans-wells in serum-free media containing compounds or control, while media containing 10% serum was added to the lower chamber. After 18 hours, cells invaded through the transwells were fixed with warm 4% PFA for 20 min at room temperature and stained with crystal violet for 3 min. The membranes were removed, mounted on cover slides and cells were counted using a microscope at 40× magnification.

OVCAR5 cells [5] = assay: Transwell migration assay, OVCAR5; assay type: cell-based
Method: as §2

OVCAR5 cells [6] = assay: Solid phase adhesion assay on fibronectin, OVCAR5; assay type: cell-based
Method: (§3) Briefly, wells were coated with 10 μg/ml fibronectin diluted in PBS for one hour. 30,000 cells pretreated with compounds for 6 hours were seeded and allowed to attach for 30 minutes. After washing with PBS to remove unattached cells, cells adhering to coated wells were quantified by using the CCK-8 assay (ApexBio), following the manufacturer's protocol. Relative absorbance measured at 496 nm was used to estimate the relative number of the cell attached to fibronectin coated wells.

OVCAR5 cells [7] = assay: Wound-healing (scratch) assay, OVCAR5; assay type: cell-based
Method: as §2

SKOV3 cells [8] = assay: Transwell migration assay, SKOV3; assay type: cell-based
Method: as §2

TG2 [9] = molecular target: T2, TG2 (Homo sapiens, UniProt P21980); assay: Western blot analysis of TG2 degradation in SKOV3 cells; assay type: cell-based; conditions: for TG2 degradation with VHL ligand as competitive inhibitor: 10 μM compound 6 hrs, 10 μM VHL ligand; for TG2 degradation (western blot): 6 hours, up to 10 μM; for TG2 levels after longer treatment (western blot): 24 hours, single dosing; for TG2 levels at 24 hours after repeated dosing: dosed every 6-8 hours over 24 hours, 1 or 10 μM; for time of maximal TG2 degradation: higher concentrations (10 and 30 μM)
T2 construct: tested in multiple ovarian cancer cell lines that express TG2 for their ability to degrade the protein; endogenous in cells; host or cells: OVCAR5 and SKOV3 ovarian cancer cells
T2 sequence (P21980 1-687): T1 sequence (P21980 1-687)
Method: (§4) SKOV3 cells were purchased from ATCC. OVCAR5 cells were obtained from Dr. Marcus Peter at Northwestern University. Cells were maintained at 37° C. in an environment of 5% CO2 and 100% humidity. The media used for culturing the cell lines are included in Table 1. Cells lines used in all experiments were at low-passages and were confirmed to be pathogen and mycoplasma-free by Charles River Animal Diagnostic Services. Cell lines were authenticated by IDEXX BioAnalytics with short tandem repeat (STR) profiling. MG132 was obtained from SelleckChem. Anti-TG2 antibody (cat #: MAB3839-I-100UG) was purchased from Millipore Sigma, GAPDH antibody (cat #: H86504M) was purchased from Meridian Bioscience.
(§5) Briefly, SKOV3 and OVCAR5 cells were seeded on 6 cm dishes and treated with different concentrations of compounds at different time points. Proteins were extracted using RIPA buffer and quantified using the Bradford assay. After gel electrophoresis and transfer, PDVF membranes were blocked with TBS-Tween 5% BSA for one hour and incubated with primary antibodies 20 (1:1000 dilution, overnight at 4° C.). After incubation with the secondary antibody (anti rabbit/mouse-horseradish peroxidase 1:1000 dilution) for 1 h at room temperature, signal was developed using SuperSignal West Pico PLUS Chemiluminescent Substrate (Thermo Fisher Scientific cat #: 34580) and captured with an ImageQuant LAS 4000 machine. To detect additional proteins, membranes were treated with Restore Western Blot Stripping Buffer (Thermo Fisher Scientific cat #: 21059), blocked, and then incubated with primary antibody.

TG2 [10] = molecular target: T2, TG2; assay: Western blot analysis of TG2 degradation in OVCAR5 cells; assay type: cell-based; conditions: for TG2 degradation with VHL ligand as competitive inhibitor: 10 μM compound 6 hrs, 10 μM VHL ligand; for TG2 degradation (western blot): 6 hours, 0.1-10 μM; for TG2 levels after longer treatment (western blot): 24 hours, single dosing; for TG2 levels at 24 hours after repeated dosing: dosed every 6-8 hours over 24 hours, 1 or 10 μM
Method: as §4, §5

SKOV3 cells [11] = assay: Solid phase adhesion assay on fibronectin, SKOV3; assay type: cell-based
Method: as §3

SKOV3 cells [12] = assay: Cell viability assay (CCK-8), SKOV3; assay type: cell-based; conditions: 0.1-30 μM, 5 days
Method: as §1

SMILES | solubility (in words) (Solubility observations) | pKd (full-length TG2 [2]) | cell death / viability (OVCAR5 cells [3]) | cell migration, wound-healing assay (SKOV3 cells [4]) | cell migration, transwell migration assay (OVCAR5 cells [5]) | adhesion of cells to fibronectin (OVCAR5 cells [6]) | cell migration, wound-healing assay (OVCAR5 cells [7]) | cell migration, transwell migration assay (SKOV3 cells [8]) | decrease in affinity relative to the parental compound MT4 (full-length TG2 [2]) [fold] | TG2 degradation with VHL ligand as competitive inhibitor (TG2 [9]) | TG2 degradation (western blot) (TG2 [9]) | TG2 levels after longer treatment (western blot) (TG2 [9]) | TG2 levels at 24 hours after repeated dosing (TG2 [9]) | time of maximal TG2 degradation (TG2 [9]) [h] | TG2 degradation with VHL ligand as competitive inhibitor (TG2 [10]) | TG2 degradation (western blot) (TG2 [10]) | TG2 levels after longer treatment (western blot) (TG2 [10]) | TG2 levels at 24 hours after repeated dosing (TG2 [10]) | adhesion of cells to fibronectin (SKOV3 cells [11]) | cell death / viability (SKOV3 cells [12]) | further results
Cc1cc(N(C)C)nc(Nc2ccc(NC(=O)Cc3ccccc3)cc2)n1 [MT4, reference compound] | lower solubility than the PROTAC compounds | 5.11 | – | – | – | – | – | – | – | – | – | – | – | – | – | – | – | – | – | – | pKd (full-length TG2 [1]): 5.29
Cc1cc(N(C)CCOCCOCCOCCOCCOCCC(=O)N[C@H](C(=O)N2C[C@H](O)C[C@H]2C(=O)NCc2ccc(-c3scnc3C)cc2)C(C)(C)C)nc(Nc2ccc(NC(=O)Cc3ccccc3)cc2)n1 [Compound 11, (2S,4R)-1-((S)-22-(tert-buty)-2-(6-methyl-2-((4-(2-phenylacetamido)phenyl)amino)pyrimidin-4-yl)-20-oxo-5,8,11,14,17-pentaoxa-2,21-diazatricosan-23-oyl)-4-hydroxy-N-(4-(4-methylthiazol-5-yl)benzyl)pyrrolidine-2-carboxamide] | – | 4.16 | No significant cell death; also recorded: no cell death was observed | similarly inhibited the migration | potently inhibited the migration | significantly reduced the adhesion | potently inhibited the migration | similarly inhibited the migration | 8.8 | prevented degradation of TG2; also recorded: but not when combined with VHL ligand | significantly reduced the level of TG2; also recorded: Degradation of TG2 was observed | did not induce reduction in TG2 levels | persistent and dose-dependent decreased TG2 levels | 6 | prevented degradation of TG2 | significantly reduced the level of TG2; also recorded: Degradation of TG2 was observed | did not induce reduction in TG2 levels | persistent and dose-dependent decreased TG2 levels | significantly reduced the adhesion | No significant cell death; also recorded: no cell death was observed | –
Cc1cc(N(C)CCOCCC(=O)N[C@H](C(=O)N2C[C@H](O)C[C@H]2C(=O)NCc2ccc(-c3scnc3C)cc2)C(C)(C)C)nc(Nc2ccc(NC(=O)Cc3ccccc3)cc2)n1 [Compound 7, (2S,4R)-1-((S)-3,3-dimethyl-2-(3-(2-(methyl(6-methyl-2-((4-(2-phenylacetamido)phenyl)amino)pyrimidin-4-yl)amino)ethoxy)propanamido)butanoyl)-4-hydroxy-N-(4-(4-methylthiazol-5-yl)benzyl)pyrrolidine-2-carboxamide] | poorer solubility than compound 11 | < 4.00 | No significant cell death; also recorded: no cell death was observed | similarly inhibited the migration | potently inhibited the migration | significantly reduced the adhesion | potently inhibited the migration | similarly inhibited the migration | > 12.8 | prevented degradation of TG2; also recorded: but not when combined with VHL ligand | significantly reduced the level of TG2; also recorded: Degradation of TG2 was observed | did not induce reduction in TG2 levels | persistent and dose-dependent decreased TG2 levels | 6 | prevented degradation of TG2 | significantly reduced the level of TG2; also recorded: Degradation of TG2 was observed | did not induce reduction in TG2 levels | persistent and dose-dependent decreased TG2 levels | significantly reduced the adhesion | No significant cell death; also recorded: no cell death was observed | –
